Test results from ChEMBL document CHEMBL3046947, “Synthesis and antimicrobial activity studies of some novel substituted phenylhydrazono-1H-tetrazol-5-yl-acetonitriles” (2010).
Calls of active or inactive are those of the source. The calls are words filed in the database; no cut-off is given here.

Columns and labels:
Bacillus cereus [1] = experiment: Antibacterial activity against Bacillus cereus RSKK 863 at 30 ug/disk after 24 hr by agar well diffusion method; type: functional; conditions: for zone of inhibition at 30 µg/disc: RSKK 863, 24 h, read-out: IZ
Escherichia coli [2] = experiment: Antibacterial activity against Escherichia coli ATCC 35218 at 30 ug/disk after 24 hr by agar well diffusion method; type: functional, organism-based
Pseudomonas aeruginosa [3] = experiment: Antibacterial activity against Pseudomonas aeruginosa […] at 30 ug/disk after 24 hr by agar well diffusion method; type: functional
Bacillus cereus [4] = experiment: Antibacterial activity against Bacillus cereus RSKK 863 at 10 ug/disk after 24 hr by agar well diffusion method; type: functional; conditions: RSKK 863, 24 h, read-out: IZ
Escherichia coli [5] = experiment: Antibacterial activity against Escherichia coli ATCC 35218 at 10 ug/disk after 24 hr by agar well diffusion method; type: functional; conditions: ATCC 35218, 24 h, read-out: IZ
Pseudomonas aeruginosa [6] = experiment: Antibacterial activity against Pseudomonas aeruginosa […] at 10 ug/disk after 24 hr by agar well diffusion method; type: functional, organism-based
Pseudomonas aeruginosa [7] = experiment: Antibacterial activity against Pseudomonas aeruginosa […] at 1 mg/ml after 24 hr by agar well diffusion method; type: functional; conditions: for zone of inhibition at 1000 µg/mL: read-out: IZ
Escherichia coli [8] = experiment: Antibacterial activity against Escherichia coli ATCC 35218 at 1 mg/ml after 24 hr by agar well diffusion method; type: functional; conditions: for zone of inhibition at 1000 µg/mL: ATCC 35218, 24 h, read-out: IZ
Bacillus cereus [9] = experiment: Antibacterial activity against Bacillus cereus RSKK 863 at 1 mg/ml after 24 hr by agar well diffusion method; type: functional; conditions: for zone of inhibition at 1000 µg/mL: RSKK 863, 24 h, read-out: IZ
Staphylococcus aureus = experiment: Antibacterial activity against Staphylococcus aureus TP32 clinical isolate at 1 mg/ml after 24 hr by agar well diffusion method; type: functional; conditions: for zone of inhibition at 1000 µg/mL: TP32, 24 h, read-out: IZ
Bacillus cereus [10] = experiment: Antibacterial activity against Bacillus cereus RSKK 863 at 15 ug/disk after 24 hr by agar well diffusion method; type: functional; conditions: RSKK 863, 24 h, read-out: IZ
Pseudomonas aeruginosa [11] = experiment: Antibacterial activity against Pseudomonas aeruginosa […] at 15 ug/disk after 24 hr by agar well diffusion method; type: functional, organism-based
Escherichia coli [12] = experiment: Antibacterial activity against Escherichia coli ATCC 35218 at 15 ug/disk after 24 hr by agar well diffusion method; type: functional; conditions: ATCC 35218, 24 h, read-out: IZ
Bacillus cereus [13] = experiment: Antibacterial activity against Bacillus cereus RSKK 863 at 10 units/disk after 24 hr by agar well diffusion method; type: functional, organism-based
Escherichia coli [14] = experiment: Antibacterial activity against Escherichia coli ATCC 35218 at 10 units/disk after 24 hr by agar well diffusion method; type: functional
Pseudomonas aeruginosa [15] = experiment: Antibacterial activity against Pseudomonas aeruginosa […] at 10 units/disk after 24 hr by agar well diffusion method; type: functional, organism-based

Structure (SMILES)	zone of inhibition at 1000 µg/mL (Pseudomonas aeruginosa [7]) [mm]	zone of inhibition at 1000 µg/mL (Escherichia coli [8]) [mm]	zone of inhibition at 1000 µg/mL (Bacillus cereus [9]) [mm]	zone of inhibition at 1000 µg/mL (Staphylococcus aureus) [mm]	other results
OC(Cn1cncn1)(Cn1cncn1)c1ccc(F)cc1F					inhibition zone (IZ) (Bacillus cereus [1]): inactive; inhibition zone (IZ) (Escherichia coli [2]): inactive; inhibition zone (IZ) (Pseudomonas aeruginosa [3]): inactive
CC1(C)S[C@@H]2[C@H](NC(=O)[C@H](N)c3ccccc3)C(=O)N2[C@H]1C(=O)O [AMPICILLIN]					zone of inhibition at 10 µg/disc (Bacillus cereus [4]): 20 mm; zone of inhibition at 10 µg/disc (Escherichia coli [5]): 9 mm; inhibition zone (IZ) (Pseudomonas aeruginosa [6]): inactive
Cc1ccccc1N/N=C(\C#N)c1nnn[nH]1	5	10	20	4	
N#C/C(=N\Nc1ccccc1F)c1nnn[nH]1	4	14	19	5	
N#C/C(=N\Nc1ccccc1Br)c1nnn[nH]1	3	7	12		inhibition zone (IZ) (Staphylococcus aureus): inactive
COc1ccc(N/N=C(\C#N)c2nnn[nH]2)cc1		10	7		inhibition zone (IZ) (Pseudomonas aeruginosa [7]): inactive; inhibition zone (IZ) (Staphylococcus aureus): inactive
N#C/C(=N\Nc1ccccc1)c1nnn[nH]1	9	7	15	8	
N#C/C(=N\Nc1ccccc1[N+](=O)[O-])c1nnn[nH]1	4	7	10	4	
N#C/C(=N\Nc1ccc(F)cc1)c1nnn[nH]1	8	11	19	10	
CC[C@H]1OC(=O)[C@H](C)[C@@H](O[C@H]2C[C@@](C)(OC)[C@@H](O)[C@H](C)O2)[C@H](C)[C@@H](O[C@@H]2O[C@H](C)C[C@H](N(C)C)[C@H]2O)[C@](C)(O)C[C@@H](C)C(=O)[C@H](C)[C@@H](O)[C@]1(C)O [ERYTHROMYCIN]					zone of inhibition at 15 µg/disc (Bacillus cereus [10]): 19 mm; inhibition zone (IZ) (Pseudomonas aeruginosa [11]): inactive; zone of inhibition at 15 µg/disc (Escherichia coli [12]): 11 mm
N#C/C(=N\Nc1ccc(I)cc1)c1nnn[nH]1	9	7	10	8	
N#C/C(=N\Nc1ccc(Cl)cc1)c1nnn[nH]1	8	10	21	6	
N#C/C(=N\Nc1ccc([N+](=O)[O-])cc1)c1nnn[nH]1	5	10	11	3	
CC1(C)S[C@@H]2[C@H](NC(=O)Cc3ccccc3)C(=O)N2[C@H]1C(=O)O [PENICILLIN G]					inhibition zone (IZ) (Bacillus cereus [13]): inactive; inhibition zone (IZ) (Escherichia coli [14]): 17 mm; inhibition zone (IZ) (Pseudomonas aeruginosa [15]): inactive
Cc1ccc(N/N=C(\C#N)c2nnn[nH]2)cc1	8	10	20	8	
CN(C)[C@@H]1C(O)=C(C(N)=O)C(=O)[C@@]2(O)C(O)=C3C(=O)c4c(O)cccc4[C@@](C)(O)[C@H]3C[C@@H]12 [TETRACYCLINE]					zone of inhibition at 30 µg/disc (Bacillus cereus [1]): 17 mm; inhibition zone (IZ) (Escherichia coli [2]): inactive; zone of inhibition at 30 µg/disc (Pseudomonas aeruginosa [3]; read-out: IZ): 16 mm
CN[C@H](CC(C)C)C(=O)N[C@H]1C(=O)N[C@@H](CC(N)=O)C(=O)N[C@H]2C(=O)N[C@H]3C(=O)N[C@H](C(=O)N[C@H](C(=O)O)c4cc(O)cc(O)c4-c4cc3ccc4O)[C@H](O)c3ccc(c(Cl)c3)Oc3cc2cc(c3O[C@@H]2O[C@H](CO)[C@@H](O)[C@H](O)[C@H]2O[C@H]2C[C@](C)(N)[C@H](O)[C@H](C)O2)Oc2ccc(cc2Cl)[C@H]1O [VANCOMYCIN]					zone of inhibition at 30 µg/disc (Bacillus cereus [1]): 17 mm; inhibition zone (IZ) (Escherichia coli [2]): inactive; inhibition zone (IZ) (Pseudomonas aeruginosa [3]): inactive
N#C/C(=N\Nc1ccccc1I)c1nnn[nH]1	5	7	17	3	
COc1ccccc1N/N=C(\C#N)c1nnn[nH]1					inhibition zone (IZ) (Pseudomonas aeruginosa [7]): inactive; inhibition zone (IZ) (Escherichia coli [8]): inactive; inhibition zone (IZ) (Bacillus cereus [9]): inactive; inhibition zone (IZ) (Staphylococcus aureus): inactive
N#C/C(=N\Nc1ccc(Br)cc1)c1nnn[nH]1	8	14	20	6	
N#C/C(=N\Nc1ccccc1Cl)c1nnn[nH]1	10		5	7	inhibition zone (IZ) (Escherichia coli [8]): inactive
